Measured values reported in paper PMC8811960, “A Novel 2-Carbon-Linked Dimeric Artemisinin With Potent Antileukemic Activity and Favorable Pharmacology” (Frontiers in Oncology, 2022).
Where two headings read alike, the source gives them in different places.

How the values were obtained:
MV4;11 = assay: alamarBlue growth inhibition, MV4;11; type: cell-based; conditions: Homo sapiens, MV4;11, 48h, mean of 2 independent assays ± SD
Description: (§1) Cytotoxicity was assessed using alamarBlue assays (Life Technologies, Grand Island, NY) following manufacturer’s guidelines. Cell death was verified by Annexin V/7-aminoactinomycin D (7AAD) staining (BioLegend, San Diego, CA) per manufacturer’s guidelines.

K562 = assay: alamarBlue growth inhibition, K562; type: cell-based; conditions: Homo sapiens, K562, 48h, mean of 2 independent assays ± SD
Description: as §1

10 human AML cell lines = assay: alamarBlue growth inhibition, panel of 10 human AML cell lines; type: cell-based; conditions: for number of human AML cell lines whose growth was inhibited: of 10 human AML cell lines tested; for IC50: read-out: IC50 range
Description: as §1
Cell lines with adverse risk cytogenetic and molecular features, e.g. MLL rearrangements (ML2, MOLM14, MV4;11, THP1), FLT3-ITD (MOLM14, MV4;11), TP53 mutations (KG1a, ML2, THP1, U937), and NRAS/KRAS mutations (ML2, THP1), were among those exquisitely sensitive to ART631, with IC50s < 50 nM. The K562 cell line was the only exception, as it was resistant to all 3 of these ARTs. Based on this in vitro activity data combined with the drug stability data described below, ART631 was prioritized over ART576 for further in vitro and in vivo antileukemic efficacy experiments here ( Table 2 ).

THP1 = assay: alamarBlue growth inhibition, THP1; type: cell-based; conditions: Homo sapiens, THP-1, THP1, 48h, mean of 2 independent assays ± SD
Description: as §1

HEL = assay: alamarBlue growth inhibition, HEL; type: cell-based; conditions: Homo sapiens, 48h, mean of 2 independent assays ± SD
Description: as §1

MOLM14 = assay: alamarBlue growth inhibition, MOLM14; type: cell-based; conditions: Homo sapiens
Description: as §1
In this experiment, provided to show the entire concentration:response range, MOLM14 AML cells were cultured with a range of concentrations of artesunate (AS), ART838, ART631, and ART576 for 48h. Graph indicates growth inhibition relative to vehicle (DMSO)-treated controls by alamarBlue absorbance assays. Data points and error bars represent mean and SD of 3 independent experiments done in triplicate.

KG1a = assay: alamarBlue growth inhibition, KG1a; type: cell-based; conditions: Homo sapiens, KG-1a, 48h, mean of 2 independent assays ± SD
Description: as §1

[1] = Stability in human plasma (EDTA); type: in vitro ADME; conditions: 10 µM, 37°C, 1h
Description: (§2) The metabolic stability of ART631 was assessed in human and mouse plasma and liver microsomes (LM). For phase I microsomal stability assays, analogs (10 µM in <1% acetonitrile) were incubated in PBS containing liver microsomes, with or without cofactors ([22]). Microsomal controls (without cofactors) were used to determine non-enzymatic degradation. All experiments were incubated at 37°C for 1h and performed in duplicate. Reactions were stopped with acetonitrile and analyzed as described below.
(§3) ART631 was extracted from 25 µL plasma or microsomal solutions with 100 µL acetonitrile containing artemisinin (i.e. the natural product) as internal standard. […] Mobile phase A was ammonium acetate (2mM) containing 0.1% formic acid, and mobile phase B was acetonitrile containing 0.1% formic acid. The gradient started with mobile phase B and was held at 40% for 0.5 minutes with a flow rate of 0.4 mL/min, then increased to 100% over 1.5 minutes and held for 2.0 minutes, and finally returned back to 40% mobile phase B and allowed to equilibrate for 2.0 minutes. An AB Sciex 5500 triple quadrupole mass spectrometer operated in positive electrospray ionization mode was used for the detection of ART631. For stability studies, the ratio of ART631 to the internal standard, artemisinin, was assessed. […]

[2] = Stability in mouse plasma (EDTA); type: in vitro ADME; conditions: 10 µM, 37°C, 1h
Description: as §2, §3

U937 = assay: alamarBlue growth inhibition, U937; type: cell-based; conditions: Homo sapiens, U-937, U937, 48h, mean of 2 independent assays ± SD
Description: as §1

HL60 = assay: alamarBlue growth inhibition, HL60; type: cell-based; conditions: Homo sapiens, HL-60, HL60, 48h, mean of 2 independent assays ± SD
Description: as §1

TF1 = assay: alamarBlue growth inhibition, TF1; type: cell-based; conditions: Homo sapiens, TF-1, TF1, 48h, mean of 2 independent assays ± SD
Description: as §1

[3] = Phase I microsomal stability, human liver microsomes; type: in vitro ADME
Description: as §2
(§4) ART631 was extracted from 25 µL plasma or microsomal solutions with 100 µL acetonitrile containing artemisinin (i.e. the natural product) as internal standard. […] Mobile phase A was ammonium acetate (2mM) containing 0.1% formic acid, and mobile phase B was acetonitrile containing 0.1% formic acid. The gradient started with mobile phase B and was held at 40% for 0.5 minutes with a flow rate of 0.4 mL/min, then increased to 100% over 1.5 minutes and held for 2.0 minutes, and finally returned back to 40% mobile phase B and allowed to equilibrate for 2.0 minutes. An AB Sciex 5500 triple quadrupole mass spectrometer operated in positive electrospray ionization mode was used for the detection of ART631. For stability studies, the ratio of ART631 to the internal standard, artemisinin, was assessed. Calibration curves for ART631 were computed using the ratio of the peak area to that of the internal standard by using a quadratic equation with a 1/x^2 weighting function over the range of 8-1585 nM with dilutions of up to 1:10 (v/v).

Stability in plasma = type: in vitro ADME, human and mouse; conditions: species not given
Description: as §2
We compared the in vitro stability of ART576 and ART631 ( Table 3 ). ART576 was stable in plasma (<10% degradation), but unstable with degradation of >70% in human liver microsomes with co-factors and >90% in mouse liver microsomes with co-factors ( Table 3 ).

[4] = Phase I microsomal stability, mouse liver microsomes; type: in vitro ADME
Description: as §2, §4

ML2 = assay: alamarBlue growth inhibition, ML2; type: cell-based; conditions: Homo sapiens, ML-2, ML2, 48h, mean of 2 independent assays ± SD
Description: as §1

[5] = x5; cited from earlier work
AML45 PDX = system: AML45 PDX; design: method as in PMID 33560385; conditions: monotherapy; cited from earlier work
DDIT3 = assay: qRT-PCR for DDIT3 mRNA; type: cell-based, human; conditions: MOLM14, 18h, ART631 200 nM, ART838 200 nM, AS 10 uM, similar results in MV4;11 and ML2
Description: Cells were pre-treated with […] ROS detection reagent 5-(and 6-)-chloromethyl-2’,7’-dichlorodihydrofluorescein diacetate (CM-H2DCFDA, Life Technologies) for 30 min, followed by the iron chelator deferoxamine mesylate (DFO; 11 mM) for 60 min. Cells were then treated with ART631 (200 nM) or DMSO control for 18h, with subsequent analysis by flow cytometry. Western blotting and quantitative reverse transcription PCR (qRT-PCR) to assess for molecular markers of ROS-mediated apoptosis were performed as previously described ([20]).
Figure 4 ART631 elevated ROS and CHOP levels and reduced MCL1 expression in MOLM14 AML cells. (A) MOLM14 AML cells were pre-treated with ROS detection reagent CM-H2DCFDA ([…]) for 30 min, pre-treated with deferoxamine mesylate (DFO; 11 mM) for 60 min, and then treated with ART631 (200 nM) or DMSO control for 18h. They were then analyzed by flow cytometry. Graph represents %CM-H2DCFDA fluorescence compared to vehicle (DMSO) control treated cells. Error bars represent SD from 3 independent experiments. (B) MOLM14 AML cells were treated for 18h with vehicle, AS (10 uM), ART838 (200 nM), ART631 (200 nM), cytarabine (AraC; 150 nM), or SOR (5 uM). Protein was isolated and western blotted for MCL1, BCL2, CHOP, and β-actin. (C) MOLM14 cells were treated as in (B) for 18h, total RNA isolated, cDNA synthesized, and SYBR Green qRT-PCR performed in triplicates. Ct values were normalized to housekeeping gene GAPDH and fold change shown relative to vehicle (DMSO) control. Error bars represent SD from 3 independent experiments done in triplicate.

[6] = as previously reported; cited from earlier work
23 leukemia cell lines = conditions: against 23 leukemia cell lines; cited from earlier work
[7] = MOLM-14, MOLM14, 48h, alamarBlue, mean of 2 independent assays ± SD, read-out: IC50
[8] = 10 µM, 37°C, 1h, with cofactors
[9] = 10 µM, 37°C, 1h, without cofactors
[10] = NADPH-dependent phase I metabolism

Row | IC50 (MV4;11) [nM] | IC50 (K562) [nM] | IC50 (THP1) [nM] | IC50 (MOLM14; [7]) [nM] | IC50 (U937) [nM] | IC50 (HL60) [nM] | SMILES | number of human AML cell lines whose growth was inhibited (10 human AML cell lines) | IC50 (HEL) [nM] | IC50 (KG1a) [nM] | IC50 (TF1) [nM] | IC50 (ML2) [nM] | DDIT3 mRNA (DDIT3) | also measured
1 | 38 ± 10 | > 1000 | > 1000 | 43 ± 7 | 23 ± 1 | 72 ± 18 | C[C@@H]1CCC2[C@@H](C)[C@@H](C(=O)C[C@H]3O[C@@H]4O[C@@]5(C)CCC6[C@H](C)CCC([C@H]3C)[C@]64OO5)O[C@@H]3O[C@@]4(C)CCC1[C@@]23OO4 (stereo partly shown) [ART576] | 8 | 80 ± 19 | 64 ± 4 | 49 ± 12 | 105 ± 12 |  | IC50 (10 human AML cell lines; range over the inhibited cell lines of 10 human AML cell lines): 23 to 105 nM; percentage remaining, Plasma (EDTA) Human [1]: 91%; percentage remaining, Plasma (EDTA) Mouse [2]: 101%; percentage remaining, Phase I Metabolism HLM NADPH(+) [3, 8]: 26%; percentage remaining, Phase I Metabolism HLM NADPH(-) [3, 9]: 89%; degradation in human liver microsomes with co-factors [3, 10]: > 70%; degradation in plasma (Stability in plasma): < 10%; percentage remaining, Phase I Metabolism MLM NADPH(+) [4, 8]: 7%; percentage remaining, Phase I Metabolism MLM NADPH(-) [4, 9]: 96%; degradation in mouse liver microsomes with co-factors [4, 10]: > 90%
2 | 610 ± 30 | > 10000 | > 10000 | 890 ± 99 | 521 ± 96 | 1060 ± 83 | C[C@H]1[C@H](OC(=O)CCC(=O)O)O[C@@H]2O[C@@]3(C)CC[C@H]4[C@H](C)CC[C@@H]1[C@@]24OO3 [AS, artesunate, reference compound] |  | 1110 ± 93 | 2600 ± 458 | 1720 ± 302 | 1580 ± 94 | increased | 

Row | SMILES | IC50 (MV4;11) [nM] | IC50 (K562) [nM] | IC50 (THP1) [nM] | IC50 (MOLM14; [7]) [nM] | IC50 (U937) [nM] | IC50 (HL60) [nM] | number of human AML cell lines whose growth was inhibited (10 human AML cell lines) | IC50 (HEL) [nM] | IC50 (KG1a) [nM] | IC50 (TF1) [nM] | IC50 (ML2) [nM] | DDIT3 mRNA (DDIT3) | also measured
3 | C[C@@H]1CCC2[C@@H](C)[C@@H](CC(COP(=O)(Oc3ccccc3)Oc3ccccc3)C[C@H]3O[C@@H]4O[C@@]5(C)CCC6[C@H](C)CCC([C@H]3C)[C@]64OO5)O[C@@H]3O[C@@]4(C)CCC1[C@@]23OO4 (stereo partly shown) [ART838, reference compound] | 28 ± 1 | > 1000 | 45 ± 3 |  | 22 ± 3 | 45 ± 3 | 9 | 72 ± 6 | 112 ± 7 | 36 ± 3 | 40 ± 5 | increased | IC50 (10 human AML cell lines; Homo sapiens): 22 to 112 nM; multiple day MTD regimen [5]: 50 mg/kg/day; IC50 (MOLM14; MOLM-14, 48 h): 28 ± 3 nM; survival versus vehicle (AML45 PDX): did not reach statistical significance; degradation (stability) [6]: ≤ 20%; fold more potent than artesunate (AS) (23 leukemia cell lines): 88 fold
